Measurements from ChEMBL document CHEMBL3862033 (J Med Chem, 2016).
Active and inactive are the calls of the source. No cut-off for these calls is given here.

Key:
[1] = biological target: T1, 5-hydroxytryptamine receptor 1A (Homo sapiens) (UniProt P08908); assay: Displacement of [3H]WAY100635 from human 5-HT1AR expressed in CHO cell membranes at 10 uM incubated for 90 mins under dark condition by microbeta scintillation counting method relative to control
T1 sequence (whole entry): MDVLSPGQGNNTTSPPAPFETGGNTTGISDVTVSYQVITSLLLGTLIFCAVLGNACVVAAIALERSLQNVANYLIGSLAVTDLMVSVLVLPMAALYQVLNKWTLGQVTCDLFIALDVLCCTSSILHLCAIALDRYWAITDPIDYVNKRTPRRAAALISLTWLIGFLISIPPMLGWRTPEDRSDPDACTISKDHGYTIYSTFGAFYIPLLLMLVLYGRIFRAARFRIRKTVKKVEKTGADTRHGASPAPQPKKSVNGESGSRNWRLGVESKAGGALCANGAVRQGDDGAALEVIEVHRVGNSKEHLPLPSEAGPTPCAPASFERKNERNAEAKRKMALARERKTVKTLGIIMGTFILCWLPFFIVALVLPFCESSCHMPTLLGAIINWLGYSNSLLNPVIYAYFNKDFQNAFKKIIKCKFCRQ

[2] = biological target: T2, 5-hydroxytryptamine receptor 3A (Homo sapiens) (UniProt P46098); assay: Displacement of [3H]GR65630 from human 5-HT3 receptor expressed in HEK-T cell membranes at 10 uM incubated for 90 mins under dark condition by microbeta scintillation counting method relative to control
T2 sequence (whole entry): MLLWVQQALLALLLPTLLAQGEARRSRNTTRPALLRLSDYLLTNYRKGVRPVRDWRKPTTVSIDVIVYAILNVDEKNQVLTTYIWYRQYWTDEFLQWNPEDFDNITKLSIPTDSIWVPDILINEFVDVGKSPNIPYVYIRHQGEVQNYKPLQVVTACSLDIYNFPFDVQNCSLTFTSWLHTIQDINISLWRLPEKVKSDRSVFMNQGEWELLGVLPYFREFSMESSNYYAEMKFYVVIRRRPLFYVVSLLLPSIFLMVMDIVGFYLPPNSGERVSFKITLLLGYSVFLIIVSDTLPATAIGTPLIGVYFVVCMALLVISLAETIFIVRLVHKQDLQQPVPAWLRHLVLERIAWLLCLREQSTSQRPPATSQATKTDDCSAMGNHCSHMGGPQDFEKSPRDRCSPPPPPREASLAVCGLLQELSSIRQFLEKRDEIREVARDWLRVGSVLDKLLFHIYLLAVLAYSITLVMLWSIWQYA

[3] = biological target: T3, Adenosine receptor A1 (Homo sapiens) (UniProt P30542); assay: Displacement of [3H]N6-phenylisopropyladenosine from recombinant human A1AR expressed in CHO cell membranes at 10 uM after 60 mins by liquid scintillation counting method relative to control
T3 sequence (whole entry): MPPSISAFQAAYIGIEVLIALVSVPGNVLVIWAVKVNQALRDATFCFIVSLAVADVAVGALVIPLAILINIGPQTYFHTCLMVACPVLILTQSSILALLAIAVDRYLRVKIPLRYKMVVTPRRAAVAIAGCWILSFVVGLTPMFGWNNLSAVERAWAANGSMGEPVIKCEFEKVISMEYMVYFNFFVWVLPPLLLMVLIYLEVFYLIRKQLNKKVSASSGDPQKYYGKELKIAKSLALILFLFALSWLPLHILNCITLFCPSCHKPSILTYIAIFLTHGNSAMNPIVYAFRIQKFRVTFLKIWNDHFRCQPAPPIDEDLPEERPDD

Adenosine receptor A2a = Adenosine receptor A2a (Homo sapiens, UniProt P29274); assay: Displacement of [3 H]2-[p-(2-carboxyethyl)phenyl-ethylamino]-5'-N-ethylcarboxamidoadenosine from recombinant human adenosine receptor A2A expressed in HEK293 cell membranes at 10 uM after 60 mins by liquid scintillation counting method relative to control
[4] = biological target: T4, 5-hydroxytryptamine receptor 2C (Homo sapiens) (UniProt P28335); assay: Displacement of [3H]mesulergine from human 5-HT2CR expressed in Flp-In HEK cell membranes at 10 uM incubated for 90 mins under dark condition by microbeta scintillation counting method relative to control; conditions: HEK293
T4 sequence (whole entry): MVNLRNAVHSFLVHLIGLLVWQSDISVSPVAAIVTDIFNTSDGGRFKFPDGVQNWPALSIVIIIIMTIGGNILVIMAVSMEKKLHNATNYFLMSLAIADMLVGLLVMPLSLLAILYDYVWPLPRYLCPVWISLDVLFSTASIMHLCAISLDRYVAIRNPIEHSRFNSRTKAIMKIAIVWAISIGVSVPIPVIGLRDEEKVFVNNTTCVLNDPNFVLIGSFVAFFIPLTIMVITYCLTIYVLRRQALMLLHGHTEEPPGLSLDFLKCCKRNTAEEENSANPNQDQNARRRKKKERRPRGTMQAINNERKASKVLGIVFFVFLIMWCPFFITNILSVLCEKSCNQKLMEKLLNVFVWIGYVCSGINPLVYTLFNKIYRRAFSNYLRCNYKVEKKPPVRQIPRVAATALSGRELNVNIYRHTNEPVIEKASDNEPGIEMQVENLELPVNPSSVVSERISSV

[5] = biological target: T5, 5-hydroxytryptamine receptor 2B (Homo sapiens, UniProt P41595); conditions: HEK293, at 10 µM
[6] = biological target: T6, 5-hydroxytryptamine receptor 2A (Homo sapiens, UniProt P28223); assay: Displacement of [3H]ketanserin from human 5-HT2A receptor expressed in HEK-T cell membranes incubated for 90 mins under dark condition by microbeta scintillation counting method
[7] = biological target: 5-hydroxytryptamine receptor 5A (Homo sapiens) (UniProt P47898); assay: Displacement of [3H]LSD from human 5-HT5A receptor expressed in Flp-In-CHO cell membranes incubated for 90 mins under dark condition by microbeta scintillation counting method relative to control; design: concentration or dose not given beside the values
[8] = biological target: T6, 5-hydroxytryptamine receptor 2A; assay: Displacement of [3H]ketanserin from human 5-HT2A receptor expressed in HEK-T cell membranes at 10 uM incubated for 90 mins under dark condition by microbeta scintillation counting method relative to control
[9] = biological target: 5-hydroxytryptamine receptor 7 (Homo sapiens) (UniProt P34969); assay: Displacement of [3H]LSD from human 5-HT7A receptor expressed in HEK cell membranes at 10 uM incubated for 90 mins under dark condition by microbeta scintillation counting method relative to control; conditions: HEK293
[10] = biological target: 5-hydroxytryptamine receptor 1B (Homo sapiens) (UniProt P28222); assay: Displacement of [3H]5-CT from human 5-HT1BR expressed in HEK cell membranes at 10 uM incubated for 90 mins under dark condition by microbeta scintillation counting method relative to control; conditions: HEK293
[11] = biological target: 5-hydroxytryptamine receptor 6 (Homo sapiens) (UniProt P50406); assay: Displacement of [3H]LSD from human 5-HT6 receptor expressed in HEK cell membranes at 10 uM incubated for 90 mins under dark condition by microbeta scintillation counting method relative to control; conditions: HEK293
[12] = biological target: 5-hydroxytryptamine receptor 4 (Homo sapiens) (UniProt Q13639); assay: Displacement of [3H]GR113808 from human 5-HT4 receptor at 10 uM incubated for 90 mins under dark condition by microbeta scintillation counting method relative to control
[13] = biological target: 5-hydroxytryptamine receptor 1D (Homo sapiens) (UniProt P28221); assay: Displacement of [3H]5-CT from human 5-HT1D receptor expressed in HEK-T cell membranes at 10 uM incubated for 90 mins under dark condition by microbeta scintillation counting method relative to control
[14] = biological target: 5-hydroxytryptamine receptor 1E (Homo sapiens) (UniProt P28566); assay: Displacement of [3H]5-HT from human 5-HT1E receptor expressed in HEK cell membranes at 10 uM incubated for 90 mins under dark condition by microbeta scintillation counting method relative to control; conditions: HEK293
[15] = biological target: T5, 5-hydroxytryptamine receptor 2B; assay: biochemical; type: cell-based, HEK293
[16] = biological target: T7, 5-hydroxytryptamine receptor 2C (Homo sapiens, UniProt P28335); assay: Displacement of [3H]mesulergine from human 5-HT2CR expressed in Flp-In HEK cell membranes incubated for 90 mins under dark condition by microbeta scintillation counting method; design: species or system HEK293
T7 sequence (P28335 whole entry): T4 sequence (whole entry)

Adenosine receptor A3 = biological target: T8, Adenosine receptor A3 (Homo sapiens, UniProt P0DMS8); assay: Displacement of [125l]N 6-(4-amino-3-iodobenzyl)adenosine-5'-N-methyluronamide from recombinant human A3AR expressed in CHO cell membranes after 60 mins by gamma counting method
T8 sequence (P0DMS8 whole entry): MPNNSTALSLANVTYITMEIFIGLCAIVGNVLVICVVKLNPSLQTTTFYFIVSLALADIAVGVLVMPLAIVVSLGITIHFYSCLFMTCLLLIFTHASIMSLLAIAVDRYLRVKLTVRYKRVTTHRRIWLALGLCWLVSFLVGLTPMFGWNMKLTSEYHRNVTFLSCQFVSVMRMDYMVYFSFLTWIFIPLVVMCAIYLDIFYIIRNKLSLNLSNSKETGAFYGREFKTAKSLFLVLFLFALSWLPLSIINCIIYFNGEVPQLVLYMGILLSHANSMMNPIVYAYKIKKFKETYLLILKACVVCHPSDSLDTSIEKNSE

Adenosine receptor A1 = biological target: T9, Adenosine receptor A1 (Homo sapiens, UniProt P30542); assay: Displacement of [3H]N6-phenylisopropyladenosine from recombinant human A1AR expressed in CHO cell membranes after 60 mins by liquid scintillation counting method
T9 sequence (P30542 whole entry): T3 sequence (whole entry)

Chain of 5-hydroxytryptamine receptor 6 (Homo sapiens) (P50406 whole entry): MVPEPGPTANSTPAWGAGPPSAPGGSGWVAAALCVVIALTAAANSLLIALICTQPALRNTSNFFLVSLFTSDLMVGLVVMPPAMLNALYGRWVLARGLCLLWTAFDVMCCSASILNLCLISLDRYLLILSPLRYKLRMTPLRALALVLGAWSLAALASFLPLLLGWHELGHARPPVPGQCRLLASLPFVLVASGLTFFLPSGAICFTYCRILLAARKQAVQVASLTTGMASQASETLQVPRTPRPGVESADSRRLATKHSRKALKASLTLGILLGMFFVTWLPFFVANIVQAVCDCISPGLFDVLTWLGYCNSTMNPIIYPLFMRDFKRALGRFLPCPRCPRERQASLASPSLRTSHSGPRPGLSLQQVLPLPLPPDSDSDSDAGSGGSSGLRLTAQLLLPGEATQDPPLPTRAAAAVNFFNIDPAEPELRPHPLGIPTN
Chain of 5-hydroxytryptamine receptor 7 (Homo sapiens) (P34969 whole entry): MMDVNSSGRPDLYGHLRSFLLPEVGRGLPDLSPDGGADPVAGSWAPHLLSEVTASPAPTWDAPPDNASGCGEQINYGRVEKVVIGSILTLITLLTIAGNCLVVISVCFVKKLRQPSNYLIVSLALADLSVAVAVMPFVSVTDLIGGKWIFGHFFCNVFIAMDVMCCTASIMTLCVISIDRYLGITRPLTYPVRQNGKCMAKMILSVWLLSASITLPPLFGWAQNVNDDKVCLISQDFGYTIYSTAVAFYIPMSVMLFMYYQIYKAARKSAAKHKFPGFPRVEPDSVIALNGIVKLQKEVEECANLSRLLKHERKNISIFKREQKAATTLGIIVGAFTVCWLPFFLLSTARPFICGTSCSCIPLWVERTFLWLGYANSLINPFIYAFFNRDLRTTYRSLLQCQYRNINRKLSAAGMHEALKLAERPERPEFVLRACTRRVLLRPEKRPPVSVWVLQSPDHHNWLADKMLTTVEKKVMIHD
Chain of 5-hydroxytryptamine receptor 1D (Homo sapiens) (P28221 whole entry): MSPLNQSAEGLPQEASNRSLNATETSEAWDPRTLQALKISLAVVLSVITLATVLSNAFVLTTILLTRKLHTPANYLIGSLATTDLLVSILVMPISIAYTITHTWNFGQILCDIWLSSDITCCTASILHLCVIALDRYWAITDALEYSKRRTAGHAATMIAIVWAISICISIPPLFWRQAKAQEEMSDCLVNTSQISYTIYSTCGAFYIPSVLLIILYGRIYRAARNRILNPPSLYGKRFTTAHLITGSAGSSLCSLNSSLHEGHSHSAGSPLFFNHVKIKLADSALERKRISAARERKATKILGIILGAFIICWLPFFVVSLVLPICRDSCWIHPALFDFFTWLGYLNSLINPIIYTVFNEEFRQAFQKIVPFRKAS
Chain of 5-hydroxytryptamine receptor 4 (Homo sapiens) (Q13639 whole entry): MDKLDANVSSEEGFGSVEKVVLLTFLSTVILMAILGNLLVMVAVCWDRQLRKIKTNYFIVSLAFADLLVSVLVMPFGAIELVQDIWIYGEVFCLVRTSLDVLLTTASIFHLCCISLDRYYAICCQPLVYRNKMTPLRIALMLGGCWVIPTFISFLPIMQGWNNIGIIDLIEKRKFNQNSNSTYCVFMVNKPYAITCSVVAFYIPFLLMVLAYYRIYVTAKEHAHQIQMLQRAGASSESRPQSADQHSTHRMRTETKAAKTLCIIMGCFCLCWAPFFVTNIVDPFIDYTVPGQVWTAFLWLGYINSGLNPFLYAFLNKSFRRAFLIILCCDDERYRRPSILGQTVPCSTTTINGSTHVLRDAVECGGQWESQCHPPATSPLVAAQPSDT
T6 sequence (P28223 whole entry): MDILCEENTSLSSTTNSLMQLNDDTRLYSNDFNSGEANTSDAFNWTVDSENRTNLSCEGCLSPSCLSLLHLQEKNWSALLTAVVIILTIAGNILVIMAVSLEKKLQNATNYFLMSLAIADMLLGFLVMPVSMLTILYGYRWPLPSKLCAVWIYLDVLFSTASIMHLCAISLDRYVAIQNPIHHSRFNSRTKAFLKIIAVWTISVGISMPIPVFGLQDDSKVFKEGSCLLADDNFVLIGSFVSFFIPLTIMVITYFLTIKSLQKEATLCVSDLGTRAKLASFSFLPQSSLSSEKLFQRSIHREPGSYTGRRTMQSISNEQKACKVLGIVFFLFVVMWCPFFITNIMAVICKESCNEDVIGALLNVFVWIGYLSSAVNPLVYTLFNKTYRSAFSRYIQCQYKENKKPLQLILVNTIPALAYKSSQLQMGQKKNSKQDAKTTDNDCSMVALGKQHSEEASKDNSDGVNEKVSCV
Chain of 5-hydroxytryptamine receptor 1E (Homo sapiens) (P28566 whole entry): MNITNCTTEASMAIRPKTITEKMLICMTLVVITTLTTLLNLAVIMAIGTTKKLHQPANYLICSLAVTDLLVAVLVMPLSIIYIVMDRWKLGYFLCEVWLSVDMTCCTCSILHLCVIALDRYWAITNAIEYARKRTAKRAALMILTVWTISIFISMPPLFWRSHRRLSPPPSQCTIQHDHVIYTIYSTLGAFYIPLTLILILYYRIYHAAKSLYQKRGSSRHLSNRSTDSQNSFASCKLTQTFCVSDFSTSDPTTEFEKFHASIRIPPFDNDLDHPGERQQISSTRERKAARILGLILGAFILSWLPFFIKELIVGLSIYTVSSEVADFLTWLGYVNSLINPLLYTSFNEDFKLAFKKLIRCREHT
T5 sequence (P41595 whole entry): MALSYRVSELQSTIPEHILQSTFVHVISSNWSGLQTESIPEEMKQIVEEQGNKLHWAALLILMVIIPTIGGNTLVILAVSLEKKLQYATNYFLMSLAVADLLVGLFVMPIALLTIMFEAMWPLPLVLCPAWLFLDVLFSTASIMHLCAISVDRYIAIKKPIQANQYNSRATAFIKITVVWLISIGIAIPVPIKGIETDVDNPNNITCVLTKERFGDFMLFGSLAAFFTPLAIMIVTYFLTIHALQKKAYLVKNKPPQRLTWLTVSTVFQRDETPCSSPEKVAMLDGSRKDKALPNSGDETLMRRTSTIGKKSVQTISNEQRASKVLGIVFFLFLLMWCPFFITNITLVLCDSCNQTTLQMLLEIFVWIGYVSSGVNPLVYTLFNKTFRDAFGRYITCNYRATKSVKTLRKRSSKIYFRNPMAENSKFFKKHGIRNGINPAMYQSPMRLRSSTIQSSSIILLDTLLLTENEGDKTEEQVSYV
Chain of 5-hydroxytryptamine receptor 5A (Homo sapiens) (P47898 whole entry): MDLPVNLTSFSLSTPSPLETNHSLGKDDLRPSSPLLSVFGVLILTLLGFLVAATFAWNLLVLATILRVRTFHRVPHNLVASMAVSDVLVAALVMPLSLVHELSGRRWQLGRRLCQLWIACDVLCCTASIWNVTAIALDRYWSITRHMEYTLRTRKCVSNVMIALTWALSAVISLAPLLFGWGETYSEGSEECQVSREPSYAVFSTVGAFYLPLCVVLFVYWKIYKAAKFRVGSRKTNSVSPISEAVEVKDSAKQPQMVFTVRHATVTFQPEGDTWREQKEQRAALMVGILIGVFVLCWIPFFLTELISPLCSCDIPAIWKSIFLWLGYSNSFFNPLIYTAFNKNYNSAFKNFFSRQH
Chain of 5-hydroxytryptamine receptor 1B (Homo sapiens) (P28222 whole entry): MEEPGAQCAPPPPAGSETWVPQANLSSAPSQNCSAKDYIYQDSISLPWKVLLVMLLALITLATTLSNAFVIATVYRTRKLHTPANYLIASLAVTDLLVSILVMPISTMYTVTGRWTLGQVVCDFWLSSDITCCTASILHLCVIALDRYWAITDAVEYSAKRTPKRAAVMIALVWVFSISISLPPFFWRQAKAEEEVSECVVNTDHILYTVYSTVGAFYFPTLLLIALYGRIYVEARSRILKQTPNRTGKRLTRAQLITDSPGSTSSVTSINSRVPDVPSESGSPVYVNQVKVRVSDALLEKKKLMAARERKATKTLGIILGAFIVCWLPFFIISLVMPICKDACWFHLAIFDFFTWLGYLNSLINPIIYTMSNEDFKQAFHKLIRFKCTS
Chain of Adenosine receptor A2a (P29274 whole entry): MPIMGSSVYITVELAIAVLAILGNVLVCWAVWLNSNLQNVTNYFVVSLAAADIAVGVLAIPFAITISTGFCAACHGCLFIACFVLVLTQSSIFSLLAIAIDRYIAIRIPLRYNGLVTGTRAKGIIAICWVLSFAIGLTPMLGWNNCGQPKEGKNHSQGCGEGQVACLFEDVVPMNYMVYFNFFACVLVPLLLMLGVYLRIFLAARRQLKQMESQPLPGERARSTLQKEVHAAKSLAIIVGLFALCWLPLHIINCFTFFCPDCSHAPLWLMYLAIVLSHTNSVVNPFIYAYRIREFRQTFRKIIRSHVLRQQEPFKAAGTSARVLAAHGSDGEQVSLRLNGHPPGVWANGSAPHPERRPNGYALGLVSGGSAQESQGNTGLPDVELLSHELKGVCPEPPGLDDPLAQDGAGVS

inhibition [1]	inhibition [2]	inhibition [3]	inhibition (Adenosine receptor A2a)	inhibition [4]	inhibition [5]	Ki [6]	inhibition [7]	inhibition [8]	inhibition [9]	inhibition [10]	inhibition [11]	inhibition [12]	inhibition [13]	inhibition [14]	Ki [15]	Ki [16]	Ki (Adenosine receptor A3)	Ki (Adenosine receptor A1)	Compound
< 50%	< 50%	< 10%	< 10%	11%	> 50%	> 10000 nM	< 50%	< 10%	< 50%	< 50%	< 50%	< 50%	< 50%	< 50%	–	–	–	–	Fc1ccc(C#Cc2nc(NCc3cccc(Cl)c3)c3nc[nH]c3n2)cc1F
< 50%	< 50%	11%	< 10%	> 50%	> 50%	> 10000 nM	< 50%	< 10%	< 50%	< 50%	< 50%	< 50%	< 50%	< 50%	4800 nM	8100 nM	–	–	CN(C)c1nc(Cl)nc2c1ncn2[C@H]1[C@H](O)[C@H](O)[C@]2(CO)C[C@H]12
< 50%	< 50%	26%	< 10%	> 50%	> 50%	> 10000 nM	< 50%	< 10%	< 50%	< 50%	< 50%	< 50%	< 50%	< 50%	2100 nM	4300 nM	1480 nM	–	CNC(=O)[C@@]12C[C@@H]1[C@@H](n1cnc3c(N(C)C)nc(Cl)nc31)[C@H](O)[C@@H]2O
< 50%	< 50%	–	< 10%	> 50%	> 50%	> 10000 nM	Active	< 10%	< 50%	< 50%	< 50%	< 50%	< 50%	< 50%	4700 nM	8000 nM	1080 nM	–	CN(C)c1nc(Cl)nc2c1ncn2[C@H]1[C@H](O)[C@H](O)[C@]2(C(=O)O)C[C@H]12
< 50%	< 50%	46%	26%	> 50%	> 50%	> 10000 nM	< 50%	< 10%	< 50%	< 50%	< 50%	< 50%	< 50%	< 50%	534 nM	2310 nM	–	–	CC(=O)NCCCNC(=O)[C@@]12C[C@@H]1[C@@H](n1cnc3c(NC(C4CC4)C4CC4)nc(Cl)nc31)[C@H](O)[C@@H]2O
< 50%	< 50%	–	20%	> 50%	> 50%	> 10000 nM	< 50%	< 10%	< 50%	< 50%	< 50%	< 50%	< 50%	< 50%	332 nM	1700 nM	1650 nM	397 nM	CC(=O)NCCNC(=O)[C@@]12C[C@@H]1[C@@H](n1cnc3c(NC(C4CC4)C4CC4)nc(Cl)nc31)[C@H](O)[C@@H]2O

Compound	inhibition [1]	inhibition [2]	inhibition [3]	inhibition (Adenosine receptor A2a)	inhibition [4]	inhibition [5]	Ki [6]	inhibition [7]	inhibition [8]	inhibition [9]	inhibition [10]	inhibition [11]	inhibition [12]	inhibition [13]	inhibition [14]	Ki [15]	Ki [16]	Ki (Adenosine receptor A3)	Ki (Adenosine receptor A1)
Clc1cccc(CNc2nc(Cl)nc3[nH]cnc23)c1	< 50%	< 50%	45%	37%	> 50%	> 50%	> 10000 nM	< 50%	26%	< 50%	< 50%	< 50%	< 50%	< 50%	< 50%	2160 nM	–	–	–
